From patent publication US20220387430A1, “USE OF COMPOUND IN PREVENTING OR TREATING GRAFT VERSUS HOST DISEASE” (SHENZHEN CHIPSCREEN BIOSCIENCES, CO., LTD., priority 2019, published 2022)

Test system: GVHD model mice (BALB/c receptor mice, C57BL/6 donor mice)
Experiment: GVHD model induced by mouse allogeneic bone marrow transplantation
Assay type: in vivo
Details: for survival rate at 61 days: 61 days after allogeneic bone marrow transplantation
Source text: This study evaluates a pharmacodynamics effect of a test drug CS12192 in a GVHD model induced by mouse allogeneic bone marrow transplantation. In the GVHD model, 6-8 week old of two types of C57BL/6 (H-2b) and BALB/c (H-2d) male mice are used as donor and receptor animals respectively. Wherein, C57BL/6 mice are the donor mice, and BALB/c mice are the receptor mice.
The receptor mice are sent to an irradiation center to receive 8.5 Gry systemic irradiation on the day before transplantation, and after the irradiation, the mice are randomly divided into groups according to the body weights of the mice. On day 0, after 3-5% isoflurane pre-anesthesia, the donor mice are killed by cervical dislocation, and spleens are excised in a sterile environment, ground, and filtered by a sterile filter. Then red blood cells are digested with ammonium chloride buffer solution, lymphocytes are washed twice with RPMI 1640 culture solution, and finally resuspended in RPMI 1640 culture solution containing 10% fetal bovine serum, to prepare a lymphocyte suspension.
The receptor mice are divided into 6 groups, and each group includes 10 mice.

## C=CC(=O)N(C)c1cc(Nc2ncc(Cl)c(NCCCNC(=O)c3ccc(C#N)cc3)n2)ccc1F [CS12192]
CS12192 40 mg/kg twice a day, p<0.0005 relative to the vehicle control
  survival rate at 61 days: 89%
CS12192 80 mg/kg twice a day, p<0.0001 relative to the vehicle control
  survival rate at 61 days: 100%
CS12192 two-dose groups (40 and 80 mg/kg twice a day) versus positive drug prednisolone group and solvent control group (FIG. 2)
  weight gains of the mice: significantly better than that of the positive drug prednisolone group

## C[C@]12C=CC(=O)C=C1CC[C@@H]1[C@@H]2[C@@H](O)C[C@@]2(C)[C@H]1CC[C@]2(O)C(=O)CO [prednisolone, reference compound]
Prednisolone 20 mg/kg once a day, p<0.01 relative to the vehicle control
  survival rate at 61 days: 67%
